Test results reported in the supplement of paper PMC10733146.

Legend:
Test in all cases: viability relative to DMSO control (fraction); higher = less drug effect (more viable cells)
Conditions in all cases: 48 h
[1] = test system: primary AML patient cells (S002)
Method in brief: (§1)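 The cells were primary mononuclear tumour cells, either fresh or cryopreserved, isolated by Ficoll from blood or bone marrow or derived from processed lymph node. Each well of a 384-well plate received 4 × 10^4 cells onto compounds pre-plated at five concentrations, with one well per concentration. The medium was RPMI-1640 with penicillin/streptomycin, L-glutamine and human serum, and plates stood at 37 °C and 5% CO2 for 48 h. Viability is reported as CellTiter-Glo luminescence relative to the median of 16 inner DMSO wells.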

[2] = test system: primary AML patient cells (S007)
Method in brief: as §1

[3] = test system: primary AML patient cells (S009)
Method in brief: as §1

[4] = test system: primary AML patient cells (S019)
Method in brief: as §1

[5] = test system: primary AML patient cells (S037)
Method in brief: as §1

[6] = test system: primary AML patient cells (S055)
Method in brief: as §1

[7] = test system: primary AML patient cells (S071)
Method in brief: as §1

[8] = test system: primary AML patient cells (S072)
Method in brief: as §1

[9] = test system: primary AML patient cells (S079)
Method in brief: as §1

[10] = test system: primary AML patient cells (S089)
Method in brief: as §1

[11] = test system: primary AML patient cells (S091)
Method in brief: as §1

[12] = test system: primary DLBCL patient cells (S049)
Method in brief: as §1

[13] = test system: primary DLBCL patient cells (S076)
Method in brief: as §1

[14] = test system: primary DLBCL patient cells (S082)
Method in brief: as §1

[15] = test system: primary MCL patient cells (S041)
Method in brief: as §1

[16] = test system: primary T-NHL patient cells (S058)
Method in brief: as §1

[17] = test system: primary T-PLL patient cells (S008)
Method in brief: as §1

Nc1cccc2c1CN(C1CCC(=O)NC1=O)C2=O (stereo not given) [Lenalidomide]
viability ([1]; 0.008 µM): 0.904
viability ([1]; 0.04 µM): 0.949
viability ([1]; 0.2 µM): 0.757
viability ([1]; 1 µM): 0.698
viability ([1]; 5 µM): 0.713
viability ([2]; 0.008 µM): 0.801
viability ([2]; 0.04 µM): 0.386
viability ([2]; 0.2 µM): 0.204
viability ([2]; 1 µM): 0.188
viability ([2]; 5 µM): 0.152
viability ([3]; 0.008 µM): 0.927
viability ([3]; 0.04 µM): 0.871
viability ([3]; 0.2 µM): 0.817
viability ([3]; 1 µM): 0.723
viability ([3]; 5 µM): 0.786
viability ([4]; 0.008 µM): 1.07
viability ([4]; 0.04 µM): 0.828
viability ([4]; 0.2 µM): 0.761
viability ([4]; 1 µM): 0.863
viability ([4]; 5 µM): 0.71
viability ([5]; 0.008 µM): 1.03
viability ([5]; 0.04 µM): 1.31
viability ([5]; 0.2 µM): 0.912
viability ([5]; 1 µM): 1.03
viability ([5]; 5 µM): 0.867
viability ([6]; 0.008 µM): 1.01
viability ([6]; 0.04 µM): 0.945
viability ([6]; 0.2 µM): 0.916
viability ([6]; 1 µM): 0.943
viability ([6]; 5 µM): 0.928
viability ([7]; 0.008 µM): 0.864
viability ([7]; 0.04 µM): 0.563
viability ([7]; 0.2 µM): 0.386
viability ([7]; 1 µM): 0.321
viability ([7]; 5 µM): 0.295
viability ([8]; 0.008 µM): 1.12
viability ([8]; 0.04 µM): 1.14
viability ([8]; 0.2 µM): 1.1
viability ([8]; 1 µM): 1.13
viability ([8]; 5 µM): 1.15
viability ([9]; 0.008 µM): 1.02
viability ([9]; 0.04 µM): 1.02
viability ([9]; 0.2 µM): 1.08
viability ([9]; 1 µM): 1.08
viability ([9]; 5 µM): 1.08
viability ([10]; 0.008 µM): 0.916
viability ([10]; 0.04 µM): 0.727
viability ([10]; 0.2 µM): 0.724
viability ([10]; 1 µM): 0.559
viability ([10]; 5 µM): 0.737
viability ([11]; 0.008 µM): 1.09
viability ([11]; 0.04 µM): 1.1
viability ([11]; 0.2 µM): 1.11
viability ([11]; 1 µM): 0.943
viability ([11]; 5 µM): 1.1
viability ([12]; 0.008 µM): 0.962
viability ([12]; 0.04 µM): 1.09
viability ([12]; 0.2 µM): 0.905
viability ([12]; 1 µM): 0.943
viability ([12]; 5 µM): 0.974
viability ([13]; 0.008 µM): 0.847
viability ([13]; 0.04 µM): 1.11
viability ([13]; 0.2 µM): 0.749
viability ([13]; 1 µM): 0.992
viability ([13]; 5 µM): 1.06
viability ([14]; 0.008 µM): 1.1
viability ([14]; 0.04 µM): 1.07
viability ([14]; 0.2 µM): 1.08
viability ([14]; 1 µM): 1.14
viability ([14]; 5 µM): 1.1
viability ([15]; 0.008 µM): 1.01
viability ([15]; 0.04 µM): 0.929
viability ([15]; 0.2 µM): 0.888
viability ([15]; 1 µM): 0.953
viability ([15]; 5 µM): 0.863
viability ([16]; 0.008 µM): 0.915
viability ([16]; 0.04 µM): 1.17
viability ([16]; 0.2 µM): 0.862
viability ([16]; 1 µM): 1.14
viability ([16]; 5 µM): 0.91
viability ([17]; 0.008 µM): 0.988
viability ([17]; 0.04 µM): 0.995
viability ([17]; 0.2 µM): 0.907
viability ([17]; 1 µM): 0.836
viability ([17]; 5 µM): 0.798

CC(C)c1cc(C(=O)N2Cc3ccc(CN4CCN(C)CC4)cc3C2)c(O)cc1O [Onalespib]
viability ([1]; 0.0032 µM): 0.837
viability ([1]; 0.016 µM): 0.691
viability ([1]; 0.08 µM): 0.333
viability ([1]; 0.4 µM): 0.292
viability ([1]; 2 µM): 0.302
viability ([2]; 0.0032 µM): 0.566
viability ([2]; 0.016 µM): 0.114
viability ([2]; 0.08 µM): 0.0773
viability ([2]; 0.4 µM): 0.102
viability ([2]; 2 µM): 0.111
viability ([3]; 0.0032 µM): 1.15
viability ([3]; 0.016 µM): 0.852
viability ([3]; 0.08 µM): 0.686
viability ([3]; 0.4 µM): 0.568
viability ([3]; 2 µM): 0.648
viability ([4]; 0.0032 µM): 0.594
viability ([4]; 0.016 µM): 1.1
viability ([4]; 0.08 µM): 0.265
viability ([4]; 0.4 µM): 0.57
viability ([4]; 2 µM): 0.371
viability ([5]; 0.0032 µM): 0.914
viability ([5]; 0.016 µM): 0.992
viability ([5]; 0.08 µM): 0.887
viability ([5]; 0.4 µM): 0.962
viability ([5]; 2 µM): 0.916
viability ([6]; 0.0032 µM): 0.96
viability ([6]; 0.016 µM): 1.01
viability ([6]; 0.08 µM): 0.566
viability ([6]; 0.4 µM): 0.434
viability ([6]; 2 µM): 0.389
viability ([7]; 0.0032 µM): 0.847
viability ([7]; 0.016 µM): 0.379
viability ([7]; 0.08 µM): 0.149
viability ([7]; 0.4 µM): 0.169
viability ([7]; 2 µM): 0.168
viability ([8]; 0.0032 µM): 0.919
viability ([8]; 0.016 µM): 1.02
viability ([8]; 0.08 µM): 0.486
viability ([8]; 0.4 µM): 0.422
viability ([8]; 2 µM): 0.38
viability ([9]; 0.0032 µM): 0.872
viability ([9]; 0.016 µM): 0.888
viability ([9]; 0.08 µM): 0.555
viability ([9]; 0.4 µM): 0.381
viability ([9]; 2 µM): 0.322
viability ([10]; 0.0032 µM): 1.17
viability ([10]; 0.016 µM): 0.872
viability ([10]; 0.08 µM): 0.234
viability ([10]; 0.4 µM): 0.235
viability ([10]; 2 µM): 0.173
viability ([11]; 0.0032 µM): 1.14
viability ([11]; 0.016 µM): 0.967
viability ([11]; 0.08 µM): 0.733
viability ([11]; 0.4 µM): 0.304
viability ([11]; 2 µM): 0.234
viability ([14]; 0.0032 µM): 0.967
viability ([14]; 0.016 µM): 1.24
viability ([14]; 0.08 µM): 1.03
viability ([14]; 0.4 µM): 1.22
viability ([14]; 2 µM): 0.961
viability ([15]; 0.0032 µM): 0.95
viability ([15]; 0.016 µM): 1.05
viability ([15]; 0.08 µM): 0.724
viability ([15]; 0.4 µM): 0.53
viability ([15]; 2 µM): 0.445
viability ([17]; 0.0032 µM): 1.1
viability ([17]; 0.016 µM): 1.06
viability ([17]; 0.08 µM): 1.06
viability ([17]; 0.4 µM): 0.989
viability ([17]; 2 µM): 0.993
